Consider 4 molecules from ChEMBL document CHEMBL1125481, “N-[4-[[(3,4-dihydro-4-oxo-1,2,3-benzotriazin-6-yl)methyl]amino]benzoyl]-L-glutamic acid, a novel A-ring analogue of 2-desamino-5,8-dideazafolic acid” (J Med Chem, 1992).

Series [1] has as its system L1210. The series can be described thus: Growth inhibitory activity on mouse L1210 cell culture. It is filed as functional, cell-based.
Series [2] relates to L1210. Briefly: Growth inhibitory activity on L1210 cell culture in the presence of 5.6 uM thymidine(dThd). The note with it: Mus musculus. Format: functional, cell-based.
The test system of series [3] is L1210. The series can be described thus: Growth inhibitory activity on L1210 cell culture in the presence of 32 uM hypoxanthine (Hx). Format: functional, cell-based. The note with it: Mus musculus.
A further series addresses Thymidylate synthase (Mus musculus, UniProt P07607). The series can be described thus: Compound was tested for the inhibition of recombinant mouse thymidylate synthase, competitive with 5,10-methylenetetrahydrofolate as variable substrate.
Series [4] deals with Thymidylate synthase (Mus musculus) (UniProt P07607). The series can be described thus: Binding affinity towards thymidylate synthase (TS).
Sequence of Thymidylate synthase (Mus musculus) (P07607 whole entry, looked up): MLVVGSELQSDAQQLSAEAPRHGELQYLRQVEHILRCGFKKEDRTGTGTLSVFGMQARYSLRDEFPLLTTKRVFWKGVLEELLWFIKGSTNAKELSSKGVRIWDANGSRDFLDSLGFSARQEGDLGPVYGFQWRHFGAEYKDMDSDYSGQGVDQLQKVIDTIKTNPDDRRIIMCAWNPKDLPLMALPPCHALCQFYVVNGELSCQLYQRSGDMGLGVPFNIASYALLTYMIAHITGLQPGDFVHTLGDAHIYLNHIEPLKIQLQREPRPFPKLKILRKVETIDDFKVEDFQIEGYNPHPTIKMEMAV
Substrate in series [5]: Nc1nc(O)c2cc(CNc3ccc(C(=O)NC(CCC(=O)O)C(=O)O)cc3)ccc2n1
The series can be described thus: (§1) Kinetic characteristic of compound for mouse liver FPGS(in vitro).

Substrate in series [6]: O=C(O)CCC(NC(=O)c1ccc(NCc2ccc3ncnc(O)c3c2)cc1)C(=O)O
The description is as §1.

Substrate in series [7]: O=C(O)CCC(NC(=O)c1ccc(NCc2ccc3nnnc(O)c3c2)cc1)C(=O)O

Sequence of Thymidylate synthase (P07607 whole entry): as the sequence (P07607 whole entry, looked up) above

For the molecule `O=C(O)CCC(NC(=O)c1ccc(NCc2ccc3ncnc(O)c3c2)cc1)C(=O)O` (stereo not given), the IC50 – broadly, the concentration that inhibits the measured activity by half – in the series on L1210 [1] came out at 430 nM.
As for `O=C(O)CCC(NC(=O)c1ccc(NCc2ccc3nnnc(O)c3c2)cc1)C(=O)O` (stereo not given), the IC50 in the series with L1210 [2] was 890 nM; in the series with L1210 [1] it was 520 nM; in the series on L1210 [3], 970 nM. The Ki (at Thymidylate synthase; in series [4]) was 2300 nM each time.
The molecule `Nc1nc(O)c2cc(CNc3ccc(C(=O)NC(CCC(=O)O)C(=O)O)cc3)ccc2n1` (stereo not given) [DIDEAZAFOLATE] returned an IC50 in the series with L1210 [1] of 2700 nM.

B1: Folylpolyglutamate synthase, mitochondrial (Mus musculus), P48760 (protein)
chain: MSWARSRLCSTLSLAAVSARGATTEGAARRGMSAWPAPQEPGMEYQDAVRTLNTLQTNASYLEQVKRQRSDPQAQLEAMEMYLARSGLQVEDLNRLNIIHVTGTKGKGSTCAFTERILRNYGLKTGFFSSPHMVQVRERIRINGKPISPELFTKHFWCLYNQLEEFKDDSHVSMPSYFRFLTLMAFHVFLQEKVDLAVVEVGIGGAFDCTNIIRKPVVCGVSSLGIDHTSLLGDTVEKIAWQKGGIFKPGVPAFTVVQPEGPLAVLRDRAQQIGCPLYLCPPLEALEEVGLPLSLGLEGAHQRSNAALALQLAHCWLERQDHQDIQELKVSRPSIRWQLPLAPVFRPTPHMRRGLRDTVWPGRTQILQRGPLTWYLDGAHTTSSVQACVHWYRQSLERSKRTDGGSEVHILLFNSTGDRDSAALLKLLQPCQFDYAVFCPNVTEVSSIGNADQQNFTVTLDQVLLRCLQHQQHWNGLAEKQASSNLWSSCGPDPAGPGSLLLAPHPPQPTRTSSLVFSCISHALLWISQGRDPIFQPQSLPRNLLNHPTANSGASILREAAAIHVLVTGSLHLVGGVLKLLDPSMSQ
Regarding B1, the values for the Km in series [5], in series [6] and in series [7] were 6.4 µM, 4.8 µM and 28 µM, respectively.
